Columns and labels:
Experiment in all cases: Test D controlled growth environment herbicide test, pre- and postemergence
Assay type in all cases: in vivo
[1] = tested on: radish, wild (wild radish, Raphanus raphanistrum)
Summary of the method: (§1)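 Pre-emergence: seeds sown in silt loam soil were sprayed with compound in a non-phytotoxic solvent mix containing surfactant. Post-emergence: plants at 2 to 18 cm (1- to 4-leaf stage) in peat moss/vermiculite medium got the same formulation. Visual 0–100 rating versus controls after 14 to 21 d.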

[2] = tested on: field violet (Viola arvensis)
Summary of the method: as §1

[3] = tested on: oilseed rape (Brassica napus)
Summary of the method: as §1

kochia (Kochia scoparia) = tested on: kochia (Kochia scoparia)
Summary of the method: as §1

[4] = tested on: buckwheat, wild (wild buckwheat, Polygonum convolvulus)
Summary of the method: as §1

[5] = tested on: galium (catchweed bedstraw, Galium aparine)
Summary of the method: as §1

[6] = tested on: bluegrass (annual bluegrass, Poa annua)
Summary of the method: as §1

[7] = tested on: windgrass (Apera spica-venti)
Summary of the method: as §1

[8] = tested on: speedwell (bird's-eye speedwell, Veronica persica)
Summary of the method: as §1

[9] = tested on: canarygrass (Phalaris minor)
Summary of the method: as §1

[10] = tested on: mustard, wild (wild mustard, Sinapis arvensis)
Summary of the method: as §1

[11] = tested on: Russian thistle (Salsola kali)
Summary of the method: as §1

[12] = tested on: pigweed (Amaranthus retroflexus)
Summary of the method: as §1

[13] = Postemergence, 31 g ai/ha, scale 0 to 100 (0 no effect, 100 complete control)
[14] = Postemergence, 125 g ai/ha, visual rating on scale 0 (no effect) to 100 (complete control), 14 to 21 d
[15] = Postemergence, 250 g ai/ha, scale 0 to 100 (0 no effect, 100 complete control)
[16] = Preemergence, 125 g ai/ha, scale 0 to 100 (0 no effect, 100 complete control)
[17] = Preemergence, 250 g ai/ha, scale 0 to 100 (0 no effect, 100 complete control)
[18] = postemergence, 62 g ai/ha, scale 0 to 100, 0 no effect, 100 complete control
[19] = Preemergence, 62 g ai/ha, scale 0 to 100 (0 no effect, 100 complete control)

Cc1nn(C)c(=O)c(-c2c(C)sc3ccc(Cl)cc23)c1O [Compound 104]
Radish, Wild plant response rating [1, 13]: 70
Plant response rating, Radish, Wild [1, 14]: 90
Plant response rating, Radish, Wild [1, 15]: 95
Plant response rating (scale of 0 to 100), Radish, Wild ([1]; Preemergence, 31 g ai/ha): 95
Plant response rating (scale of 0 to 100), Radish, Wild ([1]; Preemergence, 62 g ai/ha): 100
Plant response rating, Radish, Wild [1, 16]: 95
Plant response rating, Radish, Wild [1, 17]: 100
Plant response rating, Radish, Wild [1, 18]: 75
Field Violet plant response rating [2, 13]: 85
Plant response rating, Field Violet [2, 14]: 95
Plant response rating, Field Violet [2, 15]: 98
Plant response rating (scale of 0 to 100), Field Violet ([2]; Preemergence, 31 g ai/ha): 100
Plant response rating (scale of 0 to 100), Field Violet ([2]; Preemergence, 62 g ai/ha): 100
Plant response rating, Field Violet [2, 16]: 95
Plant response rating, Field Violet [2, 17]: 100
Plant response rating, Field Violet [2, 18]: 90
Oilseed Rape plant response rating [3, 13]: 70
Plant response rating, Oilseed Rape [3, 14]: 90
Plant response rating, Oilseed Rape [3, 15]: 95
Plant response rating (scale of 0 to 100), Oilseed Rape ([3]; Preemergence, 31 g ai/ha): 15
Plant response rating (scale of 0 to 100), Oilseed Rape ([3]; Preemergence, 62 g ai/ha): 20
Plant response rating, Oilseed Rape [3, 16]: 55
Plant response rating, Oilseed Rape [3, 17]: 55
Plant response rating, Oilseed Rape [3, 18]: 75
Kochia plant response rating (kochia (Kochia scoparia); [13]): 95
Plant response rating, Kochia (kochia (Kochia scoparia); [14]): 100
Plant response rating, Kochia (kochia (Kochia scoparia); [15]): 100
Plant response rating (scale of 0 to 100), Kochia (kochia (Kochia scoparia); Preemergence, 31 g ai/ha): 30
Plant response rating (scale of 0 to 100), Kochia (kochia (Kochia scoparia); Preemergence, 62 g ai/ha): 75
Plant response rating, Kochia (kochia (Kochia scoparia); [16]): 95
Plant response rating, Kochia (kochia (Kochia scoparia); [17]): 100
Plant response rating, Kochia (kochia (Kochia scoparia); [18]): 95
Buckwheat, Wild plant response rating [4, 13]: 90
Plant response rating, Buckwheat, Wild [4, 14]: 100
Plant response rating, Buckwheat, Wild [4, 15]: 100
Plant response rating (scale of 0 to 100), Buckwheat, Wild ([4]; Preemergence, 31 g ai/ha): 0
Plant response rating, Buckwheat, Wild [4, 19]: 60
Plant response rating, Buckwheat, Wild [4, 16]: 55
Plant response rating, Buckwheat, Wild [4, 17]: 95
Plant response rating, Buckwheat, Wild [4, 18]: 95
Galium plant response rating [5, 13]: 85
Plant response rating, Galium [5, 14]: 100
Plant response rating, Galium [5, 15]: 100
Plant response rating (scale of 0 to 100), Galium ([5]; Preemergence, 31 g ai/ha): 65
Plant response rating (scale of 0 to 100), Galium ([5]; Preemergence, 62 g ai/ha): 95
Plant response rating, Galium [5, 16]: 100
Plant response rating, Galium [5, 17]: 100
Plant response rating, Galium [5, 18]: 90
Bluegrass plant response rating [6, 13]: 10
Plant response rating, Bluegrass [6, 14]: 20
Plant response rating, Bluegrass [6, 15]: 30
Plant response rating (scale of 0 to 100), Bluegrass ([6]; Preemergence, 31 g ai/ha): 35
Plant response rating, Bluegrass [6, 19]: 35
Plant response rating, Bluegrass [6, 16]: 70
Plant response rating, Bluegrass [6, 17]: 75
Plant response rating, Bluegrass [6, 18]: 10
Windgrass plant response rating [7, 13]: 55
Plant response rating, Windgrass [7, 14]: 85
Plant response rating, Windgrass [7, 15]: 85
Plant response rating (scale of 0 to 100), Windgrass ([7]; Preemergence, 31 g ai/ha): 70
Plant response rating (scale of 0 to 100), Windgrass ([7]; Preemergence, 62 g ai/ha): 75
Plant response rating, Windgrass [7, 16]: 80
Plant response rating, Windgrass [7, 17]: 100
Plant response rating, Windgrass [7, 18]: 75
Speedwell plant response rating [8, 13]: 30
Plant response rating, Speedwell [8, 14]: 55
Plant response rating, Speedwell [8, 15]: 70
Plant response rating, Speedwell [8, 18]: 35
Canarygrass plant response rating [9, 13]: 45
Plant response rating, Canarygrass [9, 14]: 80
Plant response rating, Canarygrass [9, 15]: 85
Plant response rating (scale of 0 to 100), Canarygrass ([9]; Preemergence, 31 g ai/ha): 65
Plant response rating (scale of 0 to 100), Canarygrass ([9]; Preemergence, 62 g ai/ha): 85
Plant response rating, Canarygrass [9, 16]: 95
Plant response rating, Canarygrass [9, 17]: 100
Plant response rating, Canarygrass [9, 18]: 65
Mustard, Wild plant response rating [10, 13]: 70
Plant response rating, Mustard, Wild [10, 14]: 85
Plant response rating, Mustard, Wild [10, 15]: 90
Plant response rating (scale of 0 to 100), Mustard, Wild ([10]; Preemergence, 31 g ai/ha): 10
Plant response rating (scale of 0 to 100), Mustard, Wild ([10]; Preemergence, 62 g ai/ha): 70
Plant response rating, Mustard, Wild [10, 16]: 75
Plant response rating, Mustard, Wild [10, 17]: 95
Plant response rating, Mustard, Wild [10, 18]: 75
Russian Thistle plant response rating [11, 13]: 55
Plant response rating, Russian Thistle [11, 14]: 65
Plant response rating, Russian Thistle [11, 15]: 85
Plant response rating (scale of 0 to 100), Russian Thistle ([11]; Preemergence, 31 g ai/ha): 0
Plant response rating (scale of 0 to 100), Russian Thistle ([11]; Preemergence, 62 g ai/ha): 10
Plant response rating, Russian Thistle [11, 16]: 55
Plant response rating, Russian Thistle [11, 17]: 75
Plant response rating, Russian Thistle [11, 18]: 60
Pigweed plant response rating [12, 13]: 100
Plant response rating, Pigweed [12, 14]: 100
Plant response rating, Pigweed [12, 15]: 100
Plant response rating (scale of 0 to 100), Pigweed ([12]; Preemergence, 31 g ai/ha): 60
Plant response rating (scale of 0 to 100), Pigweed ([12]; Preemergence, 62 g ai/ha): 100
Plant response rating, Pigweed [12, 16]: 100
Plant response rating, Pigweed [12, 17]: 100
Plant response rating, Pigweed [12, 18]: 100
